In article PMC5887547, “An allosteric inhibitor of Mycobacterium tuberculosis ArgJ: Implications to a novel combinatorial therapy” (EMBO Molecular Medicine, 2018):

Columns and labels:
[1] = molecular target: T1, Ornithine acetyltransferase (MtArgJ) (Mycobacterium tuberculosis, UniProt P9WPZ3); assay: […]; marginal decrease of enzyme activity (TLC assay); type: binding
T1 construct: gene argJ

[2] = molecular target: T1, Ornithine acetyltransferase (MtArgJ); assay: thermal shift assay (apparent Kd); also ANS displacement ([…]) and enzyme inhibition by TLC assay (Dixon Ki […]); type: binding
[3] = system: CC(=O)N[C@@H](CCCN)C(=O)O; assay: purified protein; details: active (substrate-binding) site

T1 sequence (P9WPZ3 1-199): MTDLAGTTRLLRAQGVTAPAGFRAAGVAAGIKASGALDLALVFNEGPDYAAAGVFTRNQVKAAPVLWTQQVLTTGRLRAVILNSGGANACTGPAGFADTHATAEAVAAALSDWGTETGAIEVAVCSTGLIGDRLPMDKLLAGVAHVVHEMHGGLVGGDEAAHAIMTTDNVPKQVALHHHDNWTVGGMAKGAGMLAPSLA
T1 sequence (P9WPZ3 200-404): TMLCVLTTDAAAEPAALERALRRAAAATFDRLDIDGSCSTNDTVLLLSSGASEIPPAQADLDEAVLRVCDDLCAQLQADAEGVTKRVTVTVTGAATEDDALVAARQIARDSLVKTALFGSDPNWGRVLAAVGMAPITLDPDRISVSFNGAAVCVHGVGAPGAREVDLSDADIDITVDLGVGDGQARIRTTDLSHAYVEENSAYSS

`O=S(=O)(O)c1cccc2cccc(Nc3ccccc3)c12` [ANS, 8‐anilinonaphthalene‐1‐sulfonic acid] showed a Kd [1] of 937 µM.

`O=C(Nc1cccc2c(=O)cc(-c3nnn[nH]3)oc12)c1ccc(OCCCCc2ccccc2)cc1` [PRK, Pranlukast] showed a Kd [2] of 126 µM.

“Ornithine acetyltransferase (MtArgJ) (Mycobacterium tuberculosis H37Rv)” showed a Km [3] of 91.8 µM.
